Laboratory results reported in publication PMC7729195, “Pharmacodynamic Functions of Synthetic Derivatives for Treatment of Methicillin-Resistant Staphylococcus aureus (MRSA) and Mycobacterium tuberculosis” (Frontiers in Microbiology, 2020).
Values after ≈ are worked out from the molar mass of the structure shown. Values joined by “and” are separate entries in the source; they are usually repeats but may differ in a detail not shown here. Identical values can stand only once.

What was measured:
MRSA [1] = experiment: Bacterial inhibition assay (resazurin), MIC against MRSA; type: cell-based, Staphylococcus aureus; set-up: MIC for MRSA: unit not given here; conditions: for MIC: Staphylococcus aureus, MRSA, synthetic compounds, 18 h incubation; for MIC for MRSA: Table 6 summary
M. tuberculosis H37Rv [2] = experiment: Bacterial inhibition assay (resazurin), MIC against M. tuberculosis; type: cell-based, Mycobacterium tuberculosis; set-up: MIC for TB. H37Rv: unit not given here; conditions: for MIC: Mycobacterium tuberculosis, H37RV, 168 h; for MIC / MIC M. tuberculosis: synthetic compounds, 7 days incubation; for MIC for TB. H37Rv: Table 6 summary
E. coli EC958 = experiment: Bacterial inhibition assay (resazurin), MIC against E. coli; type: cell-based, Escherichia coli; conditions: synthetic compounds, 18 h incubation; for MIC: Escherichia coli, EC958
P. aeruginosa PAO1 = experiment: Bacterial inhibition assay (resazurin), MIC against P. aeruginosa; type: cell-based, Pseudomonas aeruginosa; conditions: synthetic compounds, 18 h incubation; for MIC: Pseudomonas aeruginosa, PAO1
A549 = type: cell-based; conditions: human, 7 days
Description: (§1) Human alveolar epithelial cells (A549), ([Giard et al., 1973]), Madin-Darby canine kidney epithelial cells (MDCK), ([Gaush et al., 1966]), human leukemia cells (THP-1) ([Tsuchiya et al., 1980]), human hepatocellular carcinoma cells (Hep-G2), ([Aden et al., 1979]), and human embryonic kidney cells 293 (HEK293) ([Graham et al., 1977]) were grown and differentiated in complete RPMI (Roswell Park Memorial Institute Medium) and DMEM (Dulbecco’s Modified Eagle’s medium) tissue culture media (RPMIc and DMEMc). To determine toxicity of the AIMS extract library, 2 × 10^5 of each cell type were added to a 96-well plate and left for 48 h at 37°C to adhere. Extract samples at a final concentration of 0.5 mg mL^–1 were added to the wells, then incubated for 7 days in a humidified 5% CO2 incubator at 37°C. Then resazurin (10 μL of 0.05% w/v) was added, and after 4 h, fluorescence measured as described previously. Cell viability was calculated as percentage fluorescence relative to untreated cells.

HEK 293 = type: cell-based; conditions: human, 7 days
Description: as §1

HepG2 = type: cell-based; conditions: human, 7 days
Description: as §1

THP1 = type: cell-based; conditions: human, 7 days
Description: as §1

MRSA [3] = experiment: Checkerboard assay with vancomycin against MRSA; type: cell-based, Staphylococcus aureus; conditions: for FIC / MIC50 / Drug–drug interactions: MRSA; for FIC / Drug–drug interactions: compound with vancomycin; for MIC50: Staphylococcus aureus, compound alone; for Activity against MRSA in combination with vancomycin: vancomycin plus compound
M. tuberculosis H37Rv [4] = experiment: Checkerboard assay with rifampicin against M. tuberculosis; type: cell-based, Mycobacterium tuberculosis; conditions: for Drug–drug interactions / FIC: M. tuberculosis, compound with rifampicin; for MIC50: Mycobacterium tuberculosis, H37RV, read-out: Compound alone MIC50 for M. tuberculosis
MRSA [5] = experiment: Minimum bactericidal concentration (MBC) for MRSA; type: cell-based, Staphylococcus aureus; set-up: unit not given here; conditions: sub-culture on agar, 18 h
TB. H37Rv = experiment: Minimum bactericidal concentration (MBC) for TB; type: cell-based, Mycobacterium tuberculosis; set-up: unit not given here; conditions: sub-culture on agar, 7 days
MRSA [6] = experiment: Time-kill study against MRSA; type: cell-based, Staphylococcus aureus; conditions: for Bactericidal character: conclusion of time-kill studies; for Effect of sub-inhibitory combination with vancomycin on MRSA growth: sub-inhibitory combinations with vancomycin; for Concentration at which killing was observed: time-kill, MRSA
M. tuberculosis = experiment: Time-kill study against M. tuberculosis; type: cell-based, Mycobacterium tuberculosis; conditions: for Effect on bacterial viability: compound treatment, day 6; for Killing effect with rifampicin: rifampicin plus compound, day 7 of treatment
Description: Time-kill experiments were performed by culturing MRSA and M. tuberculosis in liquid medium in the presence of six synthesized sample concentrations in doubling dilutions ranging from 8 to 0.001 × MIC and 2 × MIC for both bacteria, respectively. Growth curves were initially generated to confirm that bacteria would reach a stable early- to mid-log phase after 2 and 48 h of pre-incubation in antimicrobial-free both medium, respectively. Samples were taken in different incubation times after drug exposure at 0, 2, 4, 6, 8, and 24 h for MRSA and 24, 48 h, and 4 and 6 days for M. tuberculosis and then plated onto agar plates for CFU determination. The experiments were carried out in duplicate and repeated three times.

resistant strains = experiment: MIC against resistant strains; type: cell-based; conditions: read-out: MIC against resistant strains
[7] = tested on: A549, THP-1, HepG2 and HEK 293 cell lines; type: cell-based, human
Description: as §1

[8] = compound 12.5 μM plus vancomycin 50 μg mL^–1

Structure (SMILES) | MIC (MRSA [1]) [µM] | MIC for MRSA (MRSA [1]) | MIC (M. tuberculosis H37Rv [2]) [µM] | MIC for TB. H37Rv (M. tuberculosis H37Rv [2]) | MIC (E. coli EC958) [µM] | MIC (P. aeruginosa PAO1) [µM] | Minimum toxicity concentration of drug (MTC) A549 (A549) [µM] | Minimum toxicity concentration of drug (MTC) HEK 293 (HEK 293) [µM] | Minimum toxicity concentration of drug (MTC) HepG2 (HepG2) [µM] | Minimum toxicity concentration of drug (MTC) THP1 (THP1) [µM] | FIC (MRSA [3]) | MIC50 (MRSA [3]) [µM] | Drug–drug interactions (M. tuberculosis H37Rv [4]) | FIC (M. tuberculosis H37Rv [4]) | MIC50 (M. tuberculosis H37Rv [4]) [µM] | MBC for MRSA (MRSA [5]) | MBC for TB. H37Rv (TB. H37Rv) | Effect of sub-inhibitory combination with vancomycin on MRSA growth (MRSA [6]) | Effect on bacterial viability (M. tuberculosis) | Toxicity against THP1 and/or HEK 293 cells [7] | further results
CCCCCCCCN(CCCCCCCC)c1cccc(C)c1 [Compound 1a, N,N-Dioctyl-3-Methylaniline] | 12.5 ± 1 (≈ 4.14 µg/mL) | 12.5 | 1.5 ± 3 (≈ 0.497 µg/mL) | 1.5 | 12.5 ± 5 (≈ 4.14 µg/mL) | 6.2 ± 9 (≈ 2.06 µg/mL) | >100 ± 4.1 | 50 ± 0.9 | >100 ± 3.0 | 50 ± 2.0 | 0.45 | 12.5 | Indifference (0.25–4 indifferent or additive activity) | 1.1 | 1.5 | 25 | 25 | substantially inhibited growth of MRSA | significant reduction in bacterial viability | some toxicity | Activity against MRSA in combination with vancomycin (MRSA [3]): bactericidal activity; Bactericidal character (MRSA [6]): strongly bactericidal and concentration dependent; MIC (resistant strains): 6.7 to 20 µM (≈ 2.22 to 6.63 µg/mL); MTC on all cell lines tested ([7]; human, 7 days): 50 to 100 µM
CCCCCCCCN(CCCCCCCC)c1ccc(C)cc1 [Compound 1b, N,N-Dioctyl-4-Methylaniline] | 100 ± 5.4 (≈ 33.2 µg/mL) | 100 | 25 ± 1 (≈ 8.29 µg/mL) | 6.25 | 100 ± 1 (≈ 33.2 µg/mL) | 100 ± 6.5 (≈ 33.2 µg/mL) | >100 ± 3.8 | >100 ± 6.0 | >100 ± 0.9 | >100 ± 2.0 | 1.2 | 100 | Indifference (0.25–4 indifferent or additive activity) | 1.1 | 6.25 | 200 | 100 | substantially inhibited growth of MRSA | significant reduction in bacterial viability | – | Drug–drug interactions (MRSA [3]): Indifference (0.25–4 indifferent or additive activity); Time-kill effect against log-phase MRSA (MRSA [6]; 100 μM): rapidly reduced growth by 1 h post-treatment; Effect on regrowth of MRSA (MRSA [6]; [8]): substantially reduced regrowth; Toxicity against all four cell lines [7]: low toxicity
CCCCCCCCN(CCCCCCCC)Cc1ccccc1 [Compound 2a, N-Benzyl-N-Octyloctan-1Amine] | 12.5 ± 0.7 (≈ 4.14 µg/mL) | 12.5 | 1.5 ± 1 (≈ 0.497 µg/mL) | 1.5 | 50 ± 1 (≈ 16.6 µg/mL) | 50 ± 1 (≈ 16.6 µg/mL) | >100 ± 1.0 | 50 ± 4.0 | >100 ± 0.8 | 6.5 ± 0.8 | 0.328 and 0.33 | 12.5 | Indifference (0.25–4 indifferent or additive activity) | 1.1 | 1.5 | 100 | 25 | substantially inhibited growth of MRSA | significant reduction in bacterial viability | some toxicity | Activity against MRSA in combination with vancomycin (MRSA [3]): bactericidal activity; Time to bactericidal effect (MRSA [6]; [8]): 1 h; Net-growth of MRSA (MRSA [6]; compound 1.5 to 0.1 μM plus vancomycin 50 μg mL^–1, at 24 h): up to 102 CFU mL^–1; Bactericidal character (MRSA [6]): strongly bactericidal and concentration dependent
CCCCCCCCCCN(CCCCCC)CCCCCC [Compound 3, N,N-Dihexyldecan-1-Amine] | 12.5 ± 1 (≈ 4.07 µg/mL) | 12.5 | 3.1 (≈ 1.01 µg/mL) | 1.5 | 6.2 (≈ 2.02 µg/mL) | 3.1 (≈ 1.01 µg/mL) | >100 ± 2.0 | 25 ± 2.0 | >100 ± 1.0 | 50 ± 5.0 | 1.2 | 12.5 | – | 0.4 | 1.5 | 12.5 | 6.25 | substantially inhibited growth of MRSA | significant reduction in bacterial viability | some toxicity | MIC M. tuberculosis (M. tuberculosis H37Rv [2]): 3.1 ± 0.7 µM (≈ 1.01 µg/mL); MIC E. coli (E. coli EC958): 6.2 ± 1.0 µM (≈ 2.02 µg/mL); MIC P. aeruginosa (P. aeruginosa PAO1): 3.1 ± 5.0 µM (≈ 1.01 µg/mL); Drug–drug interactions (MRSA [3]): Indifference (0.25–4 indifferent or additive activity); Effect against M. tuberculosis in combination with rifampicin (M. tuberculosis H37Rv [4]; rifampicin plus compound): synergistic or bactericidal effects; Bactericidal character (MRSA [6]): strongly bactericidal and concentration dependent; Concentration at which killing was observed (MRSA [6]): 12.5 μg mL^–1; Killing effect with rifampicin (M. tuberculosis): comparable killing effects
CCCCCCCCN(CCCCCCCC)CCCCCCCC [Compound 13, N,N,N-Trioctylammonium Chloride] | 12.5 ± 2.7 | 12.5 | 0.02 | 0.02 | 25 ± 2 | 25 ± 4 | 50 ± 1.4 | 6.5 ± 3.0 | >100 ± 5.2 | 3.1 ± 0.7 | – | 12.5 | Indifference (0.25–4 indifferent or additive activity) | 1.1 | 0.02 | 100 | 0.39 | substantially inhibited growth of MRSA | – | some toxicity | MIC M. tuberculosis (M. tuberculosis H37Rv [2]): 0.02 ± 1.1 µM; Drug–drug interactions (MRSA [3]): Indifference (0.25–4 indifferent or additive activity); Concentration at which killing was observed (MRSA [6]): > 100 μg mL^–1; Killing effect with rifampicin (M. tuberculosis): comparable killing effects; MIC (resistant strains): ≥ 0.24 µM
CN[C@H](CC(C)C)C(=O)N[C@H]1C(=O)N[C@@H](CC(N)=O)C(=O)N[C@H]2C(=O)N[C@H]3C(=O)N[C@H](C(=O)N[C@H](C(=O)O)c4cc(O)cc(O)c4-c4cc3ccc4O)[C@H](O)c3ccc(c(Cl)c3)Oc3cc2cc(c3O[C@@H]2O[C@H](CO)[C@@H](O)[C@H](O)[C@H]2O[C@H]2C[C@](C)(N)[C@H](O)[C@H](C)O2)Oc2ccc(cc2Cl)[C@H]1O [vancomycin, Vancomycin, reference compound] | – | – | – | – | – | – | – | – | – | – | – | – | – | – | – | – | – | – | – | – | Viable count after regrowth (MRSA [6]; 50 μg mL^–1, after 24h): 106 CFU mL^–1; Time-kill effect against MRSA (MRSA [6]; 100 μg mL^–1 at 24 h): bactericidal effect; Time-kill effect against MRSA compared to untreated bacteria (MRSA [6]; concentrations up to 50 μg mL^–1): did not have an antibacterial effect
